From PubChem BioAssay AID489022 (Sanford-Burnham Center for Chemical Genomics, 2010)
Activity calls are given as the source filed them. How the calls were made is not given here.

Each compound was assayed on HEK-293T NF-kB luciferase reporter, luminescence counterscreen (assay: inhibitors of NF-kB luciferase reporter, HEK-293T, dose response, counter-screen for BCR NF-kB inhibitor project, luminescence, B-cell screen hits (AID 489022)).
For `O=C(CCCN1C(=O)/C(=C/c2ccccc2Cl)SC1=S)NNC(=O)c1ccc(Cl)cc1`, the IC50 was > 80 µM (inactive).
For `CCCCCC/C=C/c1ccc(OC)c([C@H]2[C@H]3C=CC[C@@H](C)[C@@H]3C(=O)N2Cc2ccccc2)c1`, the IC50 was > 80 µM (inactive).
With `COc1cc(-c2[nH]nc3c2C(c2ccco2)C(C#N)=C(N)O3)cc(OC)c1OC` (stereo not drawn) the IC50 was > 80 µM (inactive).
With `CCN(CC(=O)Nc1c(F)cccc1F)C(=O)C1(c2ccccc2)CC1` the IC50 was > 80 µM (inactive).
`COc1ccc(C(C(=O)NC2CCCCC2)N(C(=O)CCl)c2ccc(Cl)cc2)cc1` (stereo not drawn) was tested, and the IC50 was 25.1 µM (inactive).
With `COc1ccc(-c2nc(CSCC(=O)NCc3ccco3)c(C)o2)cc1` the IC50 was 38.5 µM (inactive).
Compound `COc1ccc(-c2ccc(C(C)=O)cc2)cc1[C@H]1[C@H]2C=CC[C@@H](C)[C@@H]2C(=O)N1Cc1ccccc1` has an IC50 of 14.2 µM.
With `CCOc1ccc(-c2nnc(SCC(=O)NC3CC3)o2)cc1` the IC50 was > 80 µM (inactive).
`Cc1[nH]c2ccccc2c1/C=N/Nc1nc(Nc2ccc(F)cc2)nc(N2CCOCC2)n1` was tested, and the IC50 was > 80 µM (inactive).
`C=C(C)[C@@H]1CCC2(C(=O)O)CC[C@]3(C)[C@H](CC[C@@H]4[C@@]5(C)CCC(=O)C(C)(C)[C@@H]5CC[C@]43C)[C@@H]12` (stereo partly drawn) showed an IC50 of 3.31 µM.
With `Cc1nc2cc(-c3ccccc3)nn2c(C)c1CCC(=O)N1CCC2(CC1)OCCO2` the IC50 was 52 µM (inactive).
In the case of `Cc1nnc2c3ccccc3c(-c3ccccc3)nn12`, the IC50 is reported as 61.4 µM (inactive).
For `COc1ccc(NC(=O)CN(C)C(=O)C2(c3ccccc3)CCCC2)cc1`, the IC50 was 21.3 µM (inactive).
For `Cn1c(=O)cc(OCCCC(=O)NCc2ccccn2)c2ccccc21`, the IC50 was > 80 µM (inactive).
For `COc1ccc(Cc2nc(-c3ccc(NC(=O)c4cccnc4)cc3)no2)cc1`, the IC50 was > 80 µM (inactive).
`Cc1cc(C)c2nc(NC(=O)[C@@H](NC(=O)c3cccc(S(=O)(=O)N4CCOCC4)c3)C(C)C)sc2c1` was tested, and the IC50 was > 80 µM (inactive).
For `CN1C(=O)CC(c2ccco2)Sc2ccccc21` (stereo not drawn), the IC50 was > 80 µM (inactive).
For `CCN1C(=O)c2cccc3c(NC(=O)c4cccc(N5C(=O)CCC5=O)c4)ccc1c23`, the IC50 was > 80 µM (inactive).
For `C=CCn1c(O)c(C(CC)=NC(C)c2ccccc2)c(=O)[nH]c1=O` (stereo not drawn), the IC50 was 25 µM (inactive).
`COc1ccc(/C=N\NC(=O)c2sccc2C)cc1Cn1nc(C)cc1C` was tested, and the IC50 was 25.4 µM (inactive).
For `COc1cc(NC(=O)c2ccco2)c(OC)cc1NC(=O)c1cc(OC)c(OC)c(OC)c1`, the IC50 was 17.7 µM.
For `Nc1ccccc1SCC(=O)Nc1nc(-c2ccccc2)cs1`, the IC50 was 11.8 µM.
Work on `O=C(CCCN1C(=O)/C(=C/c2ccccc2Cl)SC1=S)NNC(=O)c1ccccc1Cl` yielded an IC50 of 20 µM.
In the case of `CC(C)c1ccc(/C=C2\SC(=S)N(CCC(=O)N3CCCCC3CCO)C2=O)cc1` (stereo not drawn), the IC50 is reported as 17.5 µM.
Compound `N#Cc1ccccc1COc1ccc(/C=C/C(=O)O)cc1` has an IC50 of 6.03 µM.
With `Cc1ccc(NC(=O)C2CCC(CNc3c(N4CCC(C)CC4)c(=O)c3=O)CC2)cc1F` (stereo not drawn) the IC50 was > 80 µM (inactive).
In the case of `O=C(Cc1cccc2ccccc12)Nc1ccc(-c2cc3ccccc3oc2=O)cc1`, the IC50 is reported as > 80 µM (inactive).
Compound `C[C@H]1CCC/C=C/C2C[C@H](O)CC2[C@H](O)/C=C/C(=O)O1` (stereo partly drawn) has an IC50 of 0.29 µM.
With `CCCc1nc2c(C)cc(-c3nc4ccccc4n3C)cc2n1Cc1ccc(-c2ccccc2C(=O)O)cc1` the IC50 was > 80 µM (inactive).
For `Cc1c(CCC(=O)N2CCC[C@H]2C(=O)O)c(=O)oc2cc3oc4c(c3cc12)CCCC4`, the IC50 was 8.43 µM.
`ClCc1nnc(-c2ccccc2)o1` was tested, and the IC50 was > 80 µM (inactive).
In the case of `CCn1c(=O)cc(SCC(=O)N2CCN(C(=O)c3ccco3)CC2)c2ccccc21`, the IC50 is reported as 40.9 µM (inactive).
Compound `COc1ccc(C(C(=O)NC2CCCCC2)N(C(=O)CCl)c2ccc(OC)cc2)cc1` (stereo not drawn) has an IC50 of 15.2 µM.
`CC(=C/c1ccco1)/C=N/NC(=O)CSc1nnc(SCc2ccc(C)cc2)s1` was tested, and the IC50 was > 80 µM (inactive).
In the case of `O=C(NCCCN1CCOCC1)c1cc(-c2ccc(Br)cc2)on1`, the IC50 is reported as 43.7 µM (inactive).
For `COc1ccc(/C=C2\SC(=S)N(CCCC(=O)Nc3ccc(O)cc3)C2=O)cc1`, the IC50 was > 80 µM (inactive).
With `COc1ccc(-c2ccc(C)cc2)cc1[C@H]1[C@H]2C=CC[C@@H](C)[C@@H]2C(=O)N1Cc1ccccc1` the IC50 was 48.4 µM (inactive).
In the case of `C=CCn1c(O)c(C(C)=NC(C)c2ccccc2)c(=O)[nH]c1=O` (stereo not drawn), the IC50 is reported as 60.2 µM (inactive).
For `CCOc1ccc(-c2nc(CSCC(=O)NCc3ccco3)c(C)o2)cc1`, the IC50 was 18.9 µM.
`N#CC1=C(N)Oc2cc(Nc3ccccc3)ccc2C1c1ccncc1` (stereo not drawn) showed an IC50 of 6.15 µM.
In the case of `CCOC(=O)N1CCN(c2ncnc3c2[nH]c2ccc(OC)cc23)CC1`, the IC50 is reported as 20.1 µM (inactive).
For `CCn1c(=O)cc(OCC(=O)N(C)C2CCCCC2)c2ccccc21`, the IC50 was > 80 µM (inactive).
Work on `Cn1nc(-c2ccc(Cl)cc2)c2cc(C(=O)N3CCCC3)sc21` yielded an IC50 of 3.75 µM.
For `CCOC(=O)N1CCN(CC(=O)Nc2ccc([N+](=O)[O-])cc2C(=O)Nc2ccccc2F)CC1`, the IC50 was 29.4 µM (inactive).
For `N=c1ccn2c(n1)OC1C(O)C(CO)OC12` (stereo not drawn), the IC50 was > 80 µM (inactive).
With `O=C(O)CCn1c(O)c(C=C2N=c3ccccc3=N2)sc1=S` the IC50 was 70.8 µM (inactive).
In the case of `CC(C)(C)c1ccc(-c2noc(CCC(N)=O)n2)cc1`, the IC50 is reported as 0.27 µM.
With `COc1ccc(C(=O)N/N=C/c2sc(N3CCOCC3)nc2-c2ccccc2)cc1OC` the IC50 was 14 µM.
